Data on one compound can be found in patent US6979682B2, “Platelet-activating factor antagonist inhibition of angiogenesis and tumor growth induced by basic fibroblast” (Board of Supervisors of Louisiana State University and …, priority 2001, dated 2005).

One data set has as its system 201T cells. The experiment in a line: in vitro cell growth assay, [3H]thymidine incorporation, 201T. It counts as cell-based, human. As to the method: The human prostatic carcinoma cell line PC-3 was grown in RPMI 1640 (Life Technologies, Grand Island, […].) supplemented with 10% fetal bovine serum (“FBS”, Life Technologies). The human cell line 201T was established from a poorly differentiated lung adenocarcinoma, as previously described using the method of J. M. Siegfried et al., “Secretion of autocrine growth factors by cultured lung tumors: effects on neoplastic lung epithelial cells,” Lung Cancer, vol. 4, pp. 205–209 (1988). See also J. P. Hamide et al., “Percutaneous implantation of non-small cell lung carcinoma: technique and observations,” Academ. Radiolo., vol. 4, pp. 629–633 (1997). The cell line was grown in a medium conditioned for 48 hours by the cell line A549 (ATCC CCL-185) containing 1% FBS (HyClone Laboratories, Logan, Utah) as previously described in J. M. Siegfried, “Culture of primary lung tumors using medium conditioned by a lung carcinoma cell line,” J. Cell. Biochem., vol. 41, pp. 91–95 (1988). This medium is referred to as CM+1% FBS.
PC-3 cells were exposed to 0, 0.1, 1, 2.5, 5, and 10 μM BN-50730 in RPMI medium supplemented with 10% FBS and [^3H]thymidine (Amersham Life Science, Arlington Heights, Ill.). 201T cells were exposed to 0, 0.1, 1, 2.5, 5, and 10 μM BN-50730 in CM+1% FBS supplemented with [^3H]thymidine. […] PC-3 and 201T cells were also exposed to 10 μM BN-50730 for 24, 48, 72 and 144 hours, and cell growth assessed as above.

Data set [1] concerns PAF binding sites (microsomal intracellular membranes; synaptosomal plasma membrane). As to conditions: Marcheselli and Bazan, 1994; cited from earlier work.

As to `COc1ccc(NC(=O)N2CCc3c(sc4c3C(c3ccccc3Cl)=NCc3nnc(C)n3-4)C2)cc1` [BN-50730, tetrahydro-4,7,8,10 methyl-1 (chloro-2 phenyl)-6 (methoxy-4 phenyl-carbomoyl)-9 pyrido [4′,3′-4,5] thieno [3,2-f] triazolo-1,2,4[4,3-α]diazepine-1,4], in the data set with 201T cells (10 μM, six-day time course), the “201T cell growth, time course: onset of growth inhibition” value is “growth inhibition was manifested after 72 hr of exposure”. For the same compound, in the data set with 201T cells (10 μM, up to 144 hr, p=0.081, F-test), the “201T cell growth, time course curves treated vs untreated” value is given as “not statistically different”. Also, in the data set with 201T cells (0.01-10 μM for four days, p<0.005 at or above 1.0 μM), the “201T cell growth, concentration response” value is “concentration-dependent reduction in growth”. In data set [1], the “displacement of PAF from microsomal membranes” value is recorded as “displace PAF from microsomal membranes” and the “displacement of PAF from the synaptosomal, plasma membrane” value was “not from the synaptosomal, plasma membrane”.
